How the values were obtained:
human neutrophils [1] = assay: Ca2+ influx (direct effect) in human neutrophils; type: cell-based; details: pure compounds, direct effect on [Ca2+]i, mean ± SD of three experiments; for EC50: Homo sapiens, Neutrophil
Source text: (§1) For isolation of human neutrophils, blood was collected from healthy donors in accordance with a protocol approved by the Institutional Review Board at Montana State University (Protocol #MQ041017), as described previously. Isolated neutrophils were washed and resuspended in HBSS^–. Neutrophil preparations were routinely >95% pure and >98% viable. Neutrophils were obtained from multiple different donors (n = 8); however, the cells from different donors were never pooled during experiments.
(§2) Changes in intracellular Ca^2+ concentrations ([Ca^2+]i) in human neutrophils were measured with a FlexStation 3 scanning fluorometer (Molecular Devices), as previously described. To assess the direct effects of test compounds or pure essential oils on Ca^2+ influx, the compounds/oils were added to the wells (final concentration of DMSO was 1%), and changes in fluorescence were monitored (λex = 485 nm, λem = 538 nm) every 5 s for 240 s at room temperature after addition of the test compound. To evaluate inhibitory effects of the compounds on FPR1/FPR2-dependent Ca^2+ influx, the compounds were added to the wells (final concentration of DMSO was 1%) with cells (human neutrophils or FPR1/FPR2 HL60 cells). The samples were preincubated for 10 min, followed by addition of 5 nM fMLF (for human neutrophils or FPR1-HL60 cells) or 5 nM WKYMVM (for FPR2-HL60 cells). The maximum change in fluorescence, expressed in arbitrary units over baseline, was used to determine the agonist response. Responses were normalized to the response induced by 5 nM fMLF or 5 nM WKYMVM, which were assigned as 100%.
(§3) For all Ca^2+ influx experiments, curve fitting (at least five or six points) and calculation of median effective concentration values (EC50 or IC50) were performed by nonlinear regression analysis of the dose–response curves generated using Prism 7 (GraphPad Software, Inc., San Diego, CA, USA).

[2] = system: human C20 microglial cells; assay: Ca2+ influx (direct effect) in C20 microglial cells; type: cell-based; details: pure compounds, direct effect on [Ca2+]i, mean ± SD of three experiments; for EC50: Homo sapiens
Experimental: (§4) Human C20 microglial cells were kindly provided by Dr. David Alvarez-Carbonell (Department of Molecular Biology and Microbiology, Case Western Reserve University, Cleveland, OH, USA); these are immortalized primary human microglial cells that maintain characteristics of primary microglial cells. C20 cells were grown at 37 °C and 5% CO2 in DMEM:F12 medium supplemented with 10% FBS, 2.5 mM L-glutamine, 110 mg/L sodium pyruvate, 15 mM HEPES, 100 μg/mL normocin, 100 μg/mL streptomycin, and 100 U/mL penicillin.
(§5) For analysis of Ca^2+ influx in C20 microglial cells, the cells were plated in 96-well black, clear bottom plates at 10^4 cells/well in DMEM/F12 medium containing 10% FBS. The cells were treated with 200 nM PMA for 24 h, and the medium was changed every day for 5 days. On day 5, the cells were loaded with FLIPR Calcium 5 (Molecular Devices) at a volume ratio of 1:1 for 30 min at 37 °C in the dark. The plates were then placed in a FlexStation 3 fluorometer, and basal fluorescence was measured (λex = 485 nm, λem = 538 nm). Essential oils or individual compounds of interest were added manually (final concentration of DMSO was 1%), and fluorescence was monitored for 2 min to assess the direct effects of these treatments on [Ca^2+]i. After a 10 min incubation at 37 °C, the fluorescence baseline was recorded again, and 10 µM fMLF was added to evaluate inhibitory effects on agonist-induced [Ca^2+]i. Responses were normalized to the response induced by 10 µM fMLF.
as §3

FPR1-HL60 cells = molecular target: T1, FPR1-HL60 cells (Homo sapiens, UniProt P21462); assay: Inhibition of fMLF-induced Ca2+ influx in FPR1-HL60 cells; type: cell-based; details: pure compounds; 10 min preincubation; induced by 5 nM fMLF
T1 construct: expressed in transfected cells
T1 sequence (P21462 1-350): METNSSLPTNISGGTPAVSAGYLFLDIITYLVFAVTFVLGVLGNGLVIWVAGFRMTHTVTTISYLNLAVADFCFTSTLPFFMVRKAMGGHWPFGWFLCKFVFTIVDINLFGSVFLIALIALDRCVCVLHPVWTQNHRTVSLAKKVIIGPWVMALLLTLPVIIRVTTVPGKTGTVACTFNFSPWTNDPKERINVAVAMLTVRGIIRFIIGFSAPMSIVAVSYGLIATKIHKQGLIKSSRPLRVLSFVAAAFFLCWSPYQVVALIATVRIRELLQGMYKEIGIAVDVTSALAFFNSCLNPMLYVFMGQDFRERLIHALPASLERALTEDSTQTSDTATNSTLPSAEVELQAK
Experimental: (§6) Human promyelocytic leukemia HL60 cells stably transfected with FPR1 (FPR1-HL60 cells) or FPR2 (FPR2-HL60 cells) were kindly provided by Dr. Marie-Josephe Rabiet, INSERM, Grenoble, France. These cells were cultured in RPMI 1640 medium containing 10% heat-inactivated fetal calf serum, 10 mM HEPES, 100 μg/mL streptomycin, 100 U/mL penicillin, and G418 (1 mg/mL). G418 was removed before assays were performed.
as §2, §3

FPR2-HL60 cells = molecular target: T2, FPR2-HL60 cells (Homo sapiens, UniProt P25090); assay: Inhibition of WKYMVM-induced Ca2+ influx in FPR2-HL60 cells; type: cell-based; details: pure compounds; 10 min preincubation; induced by 5 nM WKYMVM
T2 construct: expressed in transfected cells
T2 sequence (P25090 1-351): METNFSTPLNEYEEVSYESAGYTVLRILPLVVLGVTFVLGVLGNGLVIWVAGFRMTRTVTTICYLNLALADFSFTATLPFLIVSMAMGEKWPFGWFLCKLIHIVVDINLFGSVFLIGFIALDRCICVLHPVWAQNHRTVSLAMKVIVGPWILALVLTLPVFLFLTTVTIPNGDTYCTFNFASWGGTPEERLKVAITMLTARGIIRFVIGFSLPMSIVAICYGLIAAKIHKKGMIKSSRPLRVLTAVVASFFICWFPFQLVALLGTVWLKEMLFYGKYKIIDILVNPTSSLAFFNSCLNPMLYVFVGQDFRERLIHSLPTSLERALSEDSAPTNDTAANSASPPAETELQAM
Experimental: as §6, §2, §3

[3] = system: human C20 microglial cells; assay: Inhibition of fMLF-induced Ca2+ influx in C20 microglial cells; type: cell-based; details: 10 min, pure compounds, 10 min incubation, induced by 10 μM fMLF
Experimental: as §4, §5, §3

human neutrophils [4] = assay: Inhibition of fMLF-induced Ca2+ influx in human neutrophils; type: cell-based; details: pure compounds, 10 min preincubation, induced by 5 nM fMLF; for IC50: Homo sapiens, Neutrophil
Source text: as §1, §2, §3

human neutrophils [5] = assay: Neutrophil chemotaxis assay (fMLF-induced); type: cell-based; details: pure compounds, chemotaxis induced by 1 nM fMLF; for IC50: Homo sapiens, Neutrophil
Source text: as §1
Human neutrophils were resuspended in HBSS^+ containing 2% (v/v) heat-inactivated fetal bovine serum (2 × 10^6 cells/mL), and chemotaxis was analyzed in 96-well ChemoTx chemotaxis chambers (Neuroprobe, Gaithersburg, MD), as described previously. Curve fitting (at least eight to nine points) and calculation of median effective concentration values (IC50) were performed by nonlinear regression analysis of the dose-response curves generated using GraphPad Prism 8.

HL60 cells = assay: Cytotoxicity assay (CellTiter-Glo) in HL60 cells; type: cell-based, human; details: oils up to 25 µg/mL, compounds up to 25 µM
Experimental: Cytotoxicity of essential oils and pure compounds was analyzed in human promyelocytic HL60 cells using a CellTiter-Glo Luminescent Cell Viability Assay Kit (Promega), as described previously.

MAPKAPK2 = molecular target: T3, MAPKAPK2 (Homo sapiens, UniProt P49137); assay: KINOMEscan kinase Kd determination, MAPKAPK2; type: binding; details: maximum concentration of 33 µM
T3 construct: purchased Eurofins Pharma Discovery, San Diego, CA, USA (KINOMEscan service)
T3 sequence (P49137 whole entry): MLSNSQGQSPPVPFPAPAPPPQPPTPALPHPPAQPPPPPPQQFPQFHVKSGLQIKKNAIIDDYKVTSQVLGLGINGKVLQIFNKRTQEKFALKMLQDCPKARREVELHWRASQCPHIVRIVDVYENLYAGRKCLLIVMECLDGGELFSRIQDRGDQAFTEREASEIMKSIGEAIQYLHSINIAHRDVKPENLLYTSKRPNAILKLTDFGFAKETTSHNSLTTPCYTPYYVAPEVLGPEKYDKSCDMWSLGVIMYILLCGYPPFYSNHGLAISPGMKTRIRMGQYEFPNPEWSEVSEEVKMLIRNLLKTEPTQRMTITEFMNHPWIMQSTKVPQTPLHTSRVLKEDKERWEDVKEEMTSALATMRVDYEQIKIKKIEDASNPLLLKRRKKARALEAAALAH
Experimental: (§7) KINOMEscan®® was used to determine the dissociation constant (Kd) of the indicated sesquiterpenes for selected kinases (Eurofins Pharma Discovery, San Diego, CA, USA). […] Assays were performed in duplicate, and the average mean value is shown.

JNK3 = molecular target: T4, JNK3 (Homo sapiens, UniProt P53779); assay: KINOMEscan kinase Kd determination, JNK3; type: binding; details: maximum concentration of 33 µM
T4 construct: purchased Eurofins Pharma Discovery, San Diego, CA, USA (KINOMEscan service)
T4 sequence (P53779 whole entry): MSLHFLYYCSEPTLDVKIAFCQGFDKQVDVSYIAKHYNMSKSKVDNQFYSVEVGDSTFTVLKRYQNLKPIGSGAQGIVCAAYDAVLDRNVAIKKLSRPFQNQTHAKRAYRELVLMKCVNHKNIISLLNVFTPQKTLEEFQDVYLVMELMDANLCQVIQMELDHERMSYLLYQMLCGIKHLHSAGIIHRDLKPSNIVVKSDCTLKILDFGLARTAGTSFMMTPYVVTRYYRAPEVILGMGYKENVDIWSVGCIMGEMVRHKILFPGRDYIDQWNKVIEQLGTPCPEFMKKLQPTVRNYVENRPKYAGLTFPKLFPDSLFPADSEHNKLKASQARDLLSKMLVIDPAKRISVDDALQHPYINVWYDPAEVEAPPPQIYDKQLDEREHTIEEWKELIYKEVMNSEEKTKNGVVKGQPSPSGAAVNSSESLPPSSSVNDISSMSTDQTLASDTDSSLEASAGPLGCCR
Experimental: as §7

PIM1 = molecular target: T5, PIM1 (Homo sapiens, UniProt P11309); assay: KINOMEscan kinase Kd determination, PIM1; type: binding; details: maximum concentration of 33 µM
T5 construct: purchased Eurofins Pharma Discovery, San Diego, CA, USA (KINOMEscan service)
T5 sequence (P11309 whole entry): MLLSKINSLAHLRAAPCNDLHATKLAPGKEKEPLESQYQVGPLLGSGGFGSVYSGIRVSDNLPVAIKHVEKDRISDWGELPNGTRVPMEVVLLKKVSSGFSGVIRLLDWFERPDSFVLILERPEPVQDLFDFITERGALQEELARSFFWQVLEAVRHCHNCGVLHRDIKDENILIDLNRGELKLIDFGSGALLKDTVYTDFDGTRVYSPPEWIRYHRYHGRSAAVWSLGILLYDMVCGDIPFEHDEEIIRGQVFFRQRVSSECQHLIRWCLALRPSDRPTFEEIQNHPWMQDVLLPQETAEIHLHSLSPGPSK
Experimental: as §7

Row | SMILES | EC50 (human neutrophils [1]) [µM] | EC50 [2] [µM] | IC50 (FPR1-HL60 cells) [µM] | IC50 (FPR2-HL60 cells) [µM] | IC50 [3] [µM] | IC50 (human neutrophils [4]) [µM] | IC50 (human neutrophils [5]) [µM] | Binding affinity (Kd) toward MAPKAPK2 (MAPKAPK2) | Binding affinity (Kd) toward JNK3 (JNK3) | Binding affinity (Kd) toward PIM1 (PIM1) | Cell viability (cytotoxicity), 30 min incubation (HL60 cells) | Cell viability (cytotoxicity), 2 h incubation (HL60 cells; 2 h) | Ca2+ Influx C20 cells EC50 [2] | Ca2+ Influx Neutrophils EC50 (human neutrophils [1]) | FPR1-HL60 Ca2+ Influx IC50 (FPR1-HL60 cells) | FPR2-HL60 Ca2+ Influx IC50 (FPR2-HL60 cells) | Neutrophils Ca2+ Influx IC50 (human neutrophils [4]) | Neutrophils Chemotaxis IC50 (human neutrophils [5])
1 | C=C[C@]1(C)Cc2occ(C)c2C[C@H]1C(=C)C [Curzerene] | 37.6 ± 8.4 | 25.9 ± 5.2 | 21.8 ± 6.1 | 16.7 ± 5.5 | 30.7 ± 4.4 | 11 ± 3.8 | 37.9 ± 2.2 | did not observe any binding activity | did not observe any binding activity | did not observe any binding activity | minimal effects on cell viability |  |  |  |  |  |  | 
2 | C=C1C=CC(C(C)C)CC1 (stereo not drawn) [β-Phellandrene, β-phellandrene] | > 50 | > 50 | > 50 | > 50 | > 50 | > 50 | > 50 |  |  |  |  |  | inactive | inactive | no effect | no effect | no effect | inactive

More lines, in order of falling EC50 (human neutrophils [1]), values ahead:

Row | EC50 (human neutrophils [1]) [µM] | EC50 [2] [µM] | IC50 (FPR1-HL60 cells) [µM] | IC50 (FPR2-HL60 cells) [µM] | IC50 [3] [µM] | IC50 (human neutrophils [4]) [µM] | IC50 (human neutrophils [5]) [µM] | Binding affinity (Kd) toward MAPKAPK2 (MAPKAPK2) | Binding affinity (Kd) toward JNK3 (JNK3) | Binding affinity (Kd) toward PIM1 (PIM1) | SMILES | Cell viability (cytotoxicity), 30 min incubation (HL60 cells) | Cell viability (cytotoxicity), 2 h incubation (HL60 cells; 2 h) | Ca2+ Influx C20 cells EC50 [2] | Ca2+ Influx Neutrophils EC50 (human neutrophils [1]) | FPR1-HL60 Ca2+ Influx IC50 (FPR1-HL60 cells) | FPR2-HL60 Ca2+ Influx IC50 (FPR2-HL60 cells) | Neutrophils Ca2+ Influx IC50 (human neutrophils [4]) | Neutrophils Chemotaxis IC50 (human neutrophils [5])
3 | 39.4 ± 9.5 | > 50 | 32.2 ± 6.4 | 31.6 ± 5.3 | 9.8 ± 3.4 | 36.2 ± 8.2 | 4.9 ± 0.8 | did not observe any binding activity | did not observe any binding activity | did not observe any binding activity | C=C1CC[C@@H]2[C@H]([C@H]3[C@H]1CC[C@]3(C)O)C2(C)C [Spathulenol, spathulenol] | minimal effects on cell viability |  | inactive or had very low activity |  |  |  |  | 
4 | 24 ± 4.6 | 27.7 ± 2.5 | 27.7 ± 2.9 | 25 ± 7.2 | 10.7 ± 2.3 | 27.9 ± 8.9 | 8.5 ± 0.6 | did not observe any binding activity | did not observe any binding activity | did not observe any binding activity | CC(C)=C1C/C=C(\C)CC/C=C(\C)CC1=O [Germacrone] | minimal effects on cell viability |  |  |  |  |  |  | 
5 | 6.8 ± 2.3 | 27.8 ± 4.6 | 19.5 ± 4.7 | 10.7 ± 3.8 | 22.6 ± 3.1 | 7.8 ± 2.3 | 18.3 ± 4.1 | did not observe any binding activity | did not observe any binding activity | did not observe any binding activity | C[C@@H]1CC[C@H]2[C@@H]1[C@H]1[C@@H](CC[C@]2(C)O)C1(C)C [Viridiflorol, viridiflorol] | minimal effects on cell viability | a little more cytotoxicity |  |  |  |  |  | 
